Like-named read-outs stand apart in the source and are kept apart here.
Tests used:
[1] = target: PIP4K2C (Homo sapiens, UniProt Q8TBX8); settings: 1 µM; binder
[2] = target: WEE2 (Homo sapiens, UniProt P0C1S8); settings: 1 µM; binder
[3] = target: SRPK2 (Homo sapiens, UniProt P78362); settings: 1 µM; binder
[4] = target: HASPIN (Homo sapiens, UniProt Q8TF76); settings: 1 µM; binder
[5] = target: PIK3CA(I800L) (Homo sapiens, UniProt P42336, I800L); settings: 1 µM; binder
[6] = target: ABL1(M351T) (Homo sapiens, UniProt P00519, M351T); settings: phosphorylated; 1 µM; binder
[7] = target: RET(V804L) (Homo sapiens, UniProt P07949, V804L); settings: 1 µM; binder
[8] = target: ABL1-phosphorylated (Homo sapiens, UniProt P00519); settings: 1 µM; binder
[9] = target: PRKCH (Homo sapiens, UniProt P24723); settings: 1 µM; binder
[10] = target: FLT3(ITD,D835V) (Homo sapiens, UniProt P36888, D835V/ITD); settings: 1 µM; binder
[11] = target: CSF1R (Homo sapiens, UniProt P07333); settings: 1 µM; binder
[12] = target: EPHA8 (Homo sapiens, UniProt P29322); settings: 1 µM; binder
[13] = target: WNK1 (Homo sapiens, UniProt Q9H4A3); settings: 1 µM; binder
[14] = target: KIT-autoinhibited (Homo sapiens, UniProt P10721); settings: 1 µM; binder
[15] = target: PIM2 (Homo sapiens, UniProt Q9P1W9); settings: 1 µM; binder
[16] = target: PRKX (Homo sapiens, UniProt P51817); settings: 1 µM; binder
[17] = target: LATS2 (Homo sapiens, UniProt Q9NRM7); settings: 1 µM; binder
[18] = target: CDC2L5 (Homo sapiens, UniProt Q14004); settings: 1 µM; binder
[19] = target: NDR2 (Homo sapiens, UniProt Q9Y2H1); settings: 1 µM; binder
[20] = target: TRKA (Homo sapiens, UniProt P04629); settings: 1 µM; binder
[21] = target: EIF2AK1 (Homo sapiens, UniProt Q9BQI3); settings: 1 µM; binder
[22] = target: ABL1(F317L) (Homo sapiens, UniProt P00519, F317L); settings: 1 µM, binder
[23] = target: MTOR (Homo sapiens, UniProt P42345); settings: 1 µM; binder
[24] = target: FER (Homo sapiens, UniProt P16591); settings: 1 µM; binder
[25] = target: AURKB (Homo sapiens, UniProt Q96GD4); settings: 1 µM; binder
[26] = target: S6K1 (Homo sapiens, UniProt P23443); settings: 1 µM; binder
[27] = target: PIK3CA(Q546K) (Homo sapiens, UniProt P42336, Q546K); settings: 1 µM; binder
[28] = target: MRCKB (Homo sapiens, UniProt Q9Y5S2); settings: 1 µM; binder
[29] = target: CDC42BPG (Homo sapiens, UniProt Q6DT37); settings: 1 µM; binder

Chain of TRKA (P04629 whole entry): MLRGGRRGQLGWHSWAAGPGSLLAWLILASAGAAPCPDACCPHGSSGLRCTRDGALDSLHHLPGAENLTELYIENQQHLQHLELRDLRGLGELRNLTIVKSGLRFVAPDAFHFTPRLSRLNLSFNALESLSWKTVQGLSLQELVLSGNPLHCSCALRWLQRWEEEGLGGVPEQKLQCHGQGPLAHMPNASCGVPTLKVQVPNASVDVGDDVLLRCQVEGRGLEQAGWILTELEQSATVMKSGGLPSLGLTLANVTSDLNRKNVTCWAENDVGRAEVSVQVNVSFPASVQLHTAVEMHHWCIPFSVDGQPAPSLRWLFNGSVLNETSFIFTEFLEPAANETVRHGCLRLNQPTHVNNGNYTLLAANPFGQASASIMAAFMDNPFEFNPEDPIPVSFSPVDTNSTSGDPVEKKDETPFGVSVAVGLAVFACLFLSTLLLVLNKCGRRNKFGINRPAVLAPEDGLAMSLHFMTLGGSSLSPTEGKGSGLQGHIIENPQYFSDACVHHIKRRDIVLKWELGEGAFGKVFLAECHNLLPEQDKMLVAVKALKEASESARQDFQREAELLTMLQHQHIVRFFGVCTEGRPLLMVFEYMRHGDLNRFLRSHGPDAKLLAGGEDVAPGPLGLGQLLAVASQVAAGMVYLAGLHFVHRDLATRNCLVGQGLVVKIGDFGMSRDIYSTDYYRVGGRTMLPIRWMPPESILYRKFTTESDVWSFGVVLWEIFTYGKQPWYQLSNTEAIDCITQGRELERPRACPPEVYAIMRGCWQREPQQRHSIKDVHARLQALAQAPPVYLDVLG
Chain of SRPK2 (P78362 whole entry): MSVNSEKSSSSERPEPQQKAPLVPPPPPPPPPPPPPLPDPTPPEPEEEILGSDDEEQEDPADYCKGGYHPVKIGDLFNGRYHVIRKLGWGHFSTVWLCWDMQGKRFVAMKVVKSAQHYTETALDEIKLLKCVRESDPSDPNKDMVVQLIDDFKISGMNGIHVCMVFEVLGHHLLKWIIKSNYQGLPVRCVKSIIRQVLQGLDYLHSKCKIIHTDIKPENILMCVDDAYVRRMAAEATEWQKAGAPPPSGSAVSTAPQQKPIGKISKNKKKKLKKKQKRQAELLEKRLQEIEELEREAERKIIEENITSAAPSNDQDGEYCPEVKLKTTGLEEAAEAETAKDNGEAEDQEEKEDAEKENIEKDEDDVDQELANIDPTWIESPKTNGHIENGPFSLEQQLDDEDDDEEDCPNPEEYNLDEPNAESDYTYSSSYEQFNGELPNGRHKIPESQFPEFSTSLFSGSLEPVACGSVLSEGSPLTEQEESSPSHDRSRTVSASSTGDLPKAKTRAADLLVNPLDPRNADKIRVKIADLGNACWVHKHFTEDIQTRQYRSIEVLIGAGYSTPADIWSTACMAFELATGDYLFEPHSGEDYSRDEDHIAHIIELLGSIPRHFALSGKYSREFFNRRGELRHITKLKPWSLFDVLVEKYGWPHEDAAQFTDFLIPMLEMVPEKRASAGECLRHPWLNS
Chain of PIK3CA(Q546K) (P42336 whole entry Q546K): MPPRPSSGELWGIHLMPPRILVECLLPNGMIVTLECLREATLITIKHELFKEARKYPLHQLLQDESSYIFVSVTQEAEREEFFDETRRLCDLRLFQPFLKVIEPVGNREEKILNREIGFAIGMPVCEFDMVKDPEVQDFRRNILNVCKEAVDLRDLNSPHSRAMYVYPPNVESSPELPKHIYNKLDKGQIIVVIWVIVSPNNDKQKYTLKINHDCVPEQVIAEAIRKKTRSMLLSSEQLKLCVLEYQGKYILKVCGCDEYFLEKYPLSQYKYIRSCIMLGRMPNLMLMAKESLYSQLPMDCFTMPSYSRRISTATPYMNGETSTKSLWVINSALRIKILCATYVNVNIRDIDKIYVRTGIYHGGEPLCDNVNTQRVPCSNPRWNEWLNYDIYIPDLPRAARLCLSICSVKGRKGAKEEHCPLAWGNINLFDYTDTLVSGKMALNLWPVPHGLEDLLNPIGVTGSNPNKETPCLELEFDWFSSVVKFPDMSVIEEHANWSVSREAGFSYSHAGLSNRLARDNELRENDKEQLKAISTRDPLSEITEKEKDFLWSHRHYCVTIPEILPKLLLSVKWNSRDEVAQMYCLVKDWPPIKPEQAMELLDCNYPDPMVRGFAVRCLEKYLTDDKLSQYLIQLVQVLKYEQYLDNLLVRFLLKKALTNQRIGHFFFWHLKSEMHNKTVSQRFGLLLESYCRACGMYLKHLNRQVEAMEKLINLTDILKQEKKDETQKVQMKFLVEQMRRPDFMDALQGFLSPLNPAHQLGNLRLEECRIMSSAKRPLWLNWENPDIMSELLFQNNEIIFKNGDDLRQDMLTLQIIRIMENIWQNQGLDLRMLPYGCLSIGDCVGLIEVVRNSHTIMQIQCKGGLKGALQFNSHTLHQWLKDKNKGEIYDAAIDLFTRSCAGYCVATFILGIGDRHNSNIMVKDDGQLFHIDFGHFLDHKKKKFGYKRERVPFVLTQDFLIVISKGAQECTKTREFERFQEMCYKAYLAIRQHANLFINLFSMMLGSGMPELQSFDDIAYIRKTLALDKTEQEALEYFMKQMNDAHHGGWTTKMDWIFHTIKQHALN
Chain of NDR2 (Q9Y2H1 whole entry): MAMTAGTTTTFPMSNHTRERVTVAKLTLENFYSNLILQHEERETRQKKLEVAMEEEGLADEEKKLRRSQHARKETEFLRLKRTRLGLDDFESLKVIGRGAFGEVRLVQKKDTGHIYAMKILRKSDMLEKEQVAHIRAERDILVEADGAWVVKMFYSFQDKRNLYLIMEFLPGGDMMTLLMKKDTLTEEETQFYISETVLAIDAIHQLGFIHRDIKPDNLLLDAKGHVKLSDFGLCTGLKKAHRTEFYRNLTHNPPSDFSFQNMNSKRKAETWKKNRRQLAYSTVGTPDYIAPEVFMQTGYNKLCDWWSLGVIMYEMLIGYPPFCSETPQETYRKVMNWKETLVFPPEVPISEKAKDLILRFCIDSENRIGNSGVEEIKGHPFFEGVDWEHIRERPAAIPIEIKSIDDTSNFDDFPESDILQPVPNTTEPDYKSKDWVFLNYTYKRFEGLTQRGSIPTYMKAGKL
Chain of CDC2L5 (Q14004 whole entry): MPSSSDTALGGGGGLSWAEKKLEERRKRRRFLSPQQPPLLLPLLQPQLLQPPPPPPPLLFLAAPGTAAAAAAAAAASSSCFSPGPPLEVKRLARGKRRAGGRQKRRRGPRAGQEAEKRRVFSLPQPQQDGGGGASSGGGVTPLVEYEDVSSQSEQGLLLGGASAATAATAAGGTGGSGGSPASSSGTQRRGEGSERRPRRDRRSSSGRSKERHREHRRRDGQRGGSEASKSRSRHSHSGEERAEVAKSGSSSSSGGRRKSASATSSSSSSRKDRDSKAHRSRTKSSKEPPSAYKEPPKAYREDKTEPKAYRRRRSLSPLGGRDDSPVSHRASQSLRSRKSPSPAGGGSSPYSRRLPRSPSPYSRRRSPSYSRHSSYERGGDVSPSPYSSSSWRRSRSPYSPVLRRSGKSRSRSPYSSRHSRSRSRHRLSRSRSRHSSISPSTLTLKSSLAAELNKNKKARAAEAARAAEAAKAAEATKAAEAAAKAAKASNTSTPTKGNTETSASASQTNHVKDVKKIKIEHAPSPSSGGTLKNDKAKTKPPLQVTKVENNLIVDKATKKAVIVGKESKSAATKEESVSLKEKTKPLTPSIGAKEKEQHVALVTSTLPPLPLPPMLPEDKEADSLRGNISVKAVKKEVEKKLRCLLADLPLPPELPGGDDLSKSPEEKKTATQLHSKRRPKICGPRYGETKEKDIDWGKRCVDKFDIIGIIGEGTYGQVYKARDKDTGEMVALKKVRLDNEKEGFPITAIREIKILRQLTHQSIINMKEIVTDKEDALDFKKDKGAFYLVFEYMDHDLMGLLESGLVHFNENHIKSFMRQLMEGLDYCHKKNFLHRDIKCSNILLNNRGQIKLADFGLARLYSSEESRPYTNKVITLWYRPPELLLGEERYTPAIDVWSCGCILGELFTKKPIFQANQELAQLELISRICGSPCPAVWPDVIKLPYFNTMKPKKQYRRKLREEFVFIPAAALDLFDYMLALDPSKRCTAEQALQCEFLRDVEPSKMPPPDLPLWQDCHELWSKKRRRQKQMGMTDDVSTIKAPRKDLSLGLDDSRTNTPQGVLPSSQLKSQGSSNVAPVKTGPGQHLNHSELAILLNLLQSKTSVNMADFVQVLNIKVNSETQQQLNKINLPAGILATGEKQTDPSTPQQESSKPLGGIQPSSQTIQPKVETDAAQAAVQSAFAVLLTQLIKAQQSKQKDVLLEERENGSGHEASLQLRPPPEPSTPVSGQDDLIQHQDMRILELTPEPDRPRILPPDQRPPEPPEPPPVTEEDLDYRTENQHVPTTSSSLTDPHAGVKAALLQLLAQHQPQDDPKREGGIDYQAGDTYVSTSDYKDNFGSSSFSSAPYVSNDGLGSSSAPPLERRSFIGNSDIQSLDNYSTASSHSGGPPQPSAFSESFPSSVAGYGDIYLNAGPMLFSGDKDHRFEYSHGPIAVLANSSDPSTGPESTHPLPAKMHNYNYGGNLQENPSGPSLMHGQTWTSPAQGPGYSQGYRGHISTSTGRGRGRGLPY
Chain of AURKB (Q96GD4 whole entry): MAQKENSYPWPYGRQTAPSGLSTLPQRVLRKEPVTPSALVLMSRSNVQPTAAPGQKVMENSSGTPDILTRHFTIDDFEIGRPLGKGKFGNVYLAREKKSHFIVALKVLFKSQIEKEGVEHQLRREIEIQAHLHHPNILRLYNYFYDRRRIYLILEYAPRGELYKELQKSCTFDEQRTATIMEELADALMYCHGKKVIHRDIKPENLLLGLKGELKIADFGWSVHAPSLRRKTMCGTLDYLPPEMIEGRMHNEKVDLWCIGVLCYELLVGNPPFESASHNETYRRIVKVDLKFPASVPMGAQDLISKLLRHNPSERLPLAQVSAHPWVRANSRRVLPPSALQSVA
Chain of PIK3CA(I800L) (P42336 whole entry I800L): as the sequence (P42336 whole entry Q546K) above, with K546Q, I800L counted along it

Question: What does the source list for `CNc1ncc2cc(-c3ccc(-c4cccc(C)n4)cc3Cl)c(=O)n(C[C@H]3OC[C@H](N)CO3)c2n1` [compound 6, G-5555]?
Answer: Percent Control [1]: 26%; Percent Control [2]: 100%; Percent Control [3]: 70%; Percent Control [4]: 100%; Percent Control [5]: 100%; Percent Control [6]: 100%; Percent Control [7]: 100%; Percent Control [8]: 95%; Percent Control [9]: 78%; Percent Control [10]: 74%; Percent Control [11]: 92%; Percent Control [12]: 72%; Percent Control [13]: 69%; Percent Control [14]: 81%; Percent Control [15]: 100%; Percent Control [16]: 100%; Percent Control [17]: 8%; Percent Control [18]: 97%; Percent Control [19]: 100%; Percent Control [20]: 64%; Percent Control [21]: 100%; Percent Control ([22]; nonphosphorylated): 87%; Percent Control ([22]; phosphorylated): 100%; Percent Control [23]: 83%; Percent Control [24]: 100%; Percent Control [25]: 23%; Percent Control [26]: 58%; Percent Control [27]: 100%; Percent Control [28]: 5.3%; Percent Control [29]: 15%
